From patent US8476253B2, “Amide derivative” (Daiichi Sankyo Company, Limited, priority 2009, dated 2013)
Structures can show the parent of a compound that is named as a salt. Where two headings read alike, the source gives them in different places.

How the values were obtained:
substance P receptor = molecular target: T1, substance P receptor (Cavia porcellus, UniProt P30547); assay: Test for binding to guinea-pig substance P receptor (crude lung membrane sample); details: crude guinea-pig lung membrane sample, [3H]substance P; Ki from IC50 and Kd; read-out: Ki
T1 construct: A preparation of a crude lung membrane sample was prepared; from tissue; host or cells: guinea-pig lung (crude membrane sample)
Description: A preparation of a crude lung membrane sample was prepared, and a test for binding of a test substance to the sample was performed according to the method described in EP0336230A2.
The binding effect of the test substance to a substance P receptor was calculated as an affinity (Ki) of the test substance for the substance P receptor from a 50% binding concentration (IC50) and an affinity (Kd) of [^3H]substance P for the substance P receptor.

human M3 receptor = molecular target: T2, human M3 receptor (Homo sapiens, UniProt P20309); assay: Test for binding to human M3 receptor
T2 construct: expressed in transfected cells; host or cells: CHO cells
Description: A solution of cryopreserved CHO cells expressing human M3 receptor was diluted with a buffer (50 mM tris-hydrochloride containing 0.5 mM of EDTA, pH 7.4) to obtain 5.0×10^5 of cells/mL and used as a crude membrane sample.
[N-methyl-^3H]-(−)-Scopolamine methyl chloride (GE Healthcare Japan Corporation) was diluted with 50 mM of tris-hydrochloride containing 0.5 mM of EDTA (pH 7.4), a test substance and 250 μL of the crude membrane sample solution were added to 250 μL of the mixture, and the mixture was incubated at room temperature for 60 minutes. […] The glass fiber filter paper was pretreated with a 0.1% polyethylenimine solution for 4 hours or longer to minimize non-specific binding. The filter collecting membrane components was transferred to a small-size plastic vial containing 3 mL of Pico-Fluor, and the radioactivity was measured with a liquid scintillation counter (Tri-Carb 2900TR or 2300TR; Perkin Elmer).
The effect of binding to the M3 receptor was calculated as the affinity (Ki) of the test substance for the M3 receptor from a 50% binding dose (IC50) and the affinity (Kd) of [N-methyl-^3H]-(−)-Scopolamine methyl chloride for the M3 receptor.

human NK2 receptor = molecular target: T3, human NK2 receptor (Homo sapiens, UniProt P21452); assay: Test for binding to human NK2 receptor
T3 construct: expressed in transfected cells; host or cells: COS cells
T3 sequence (P21452 1-398): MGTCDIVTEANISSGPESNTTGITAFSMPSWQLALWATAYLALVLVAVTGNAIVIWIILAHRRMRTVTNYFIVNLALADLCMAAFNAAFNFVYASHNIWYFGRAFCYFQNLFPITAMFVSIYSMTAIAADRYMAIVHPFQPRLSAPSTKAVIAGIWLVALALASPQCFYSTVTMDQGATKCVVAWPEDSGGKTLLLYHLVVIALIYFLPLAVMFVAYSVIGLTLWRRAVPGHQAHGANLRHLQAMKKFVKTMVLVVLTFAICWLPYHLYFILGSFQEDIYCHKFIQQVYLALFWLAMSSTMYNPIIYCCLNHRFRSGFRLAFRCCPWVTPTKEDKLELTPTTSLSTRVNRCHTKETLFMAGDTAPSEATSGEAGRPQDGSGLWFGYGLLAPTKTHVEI
Description: A solution of cryopreserved COS cells expressing human NK2 receptor was diluted with a buffer (50 mM tris-hydrochloride containing 0.04% of bovine serum albumin [BSA], pH 7.4) to obtain a concentration of 5.0×10^5 cells/mL and used as a crude membrane sample.
[^3H]SR 48968 (GE Healthcare Japan Corporation) was diluted with a mixture of 50 mM of tris-hydrochloride (pH 7.4), 6 mM of manganese chloride tetrahydrate, 800 μg/mL of BSA, 8 μg/mL of chymostatin, 8 μg/mL of leupeptin, 80 μg/mL of bacitracin, and 20 μg/mL of phosphoramidon. […] After the reaction, the membrane components were collected on a GF/B glass fiber filter paper (Whatman; Biomedical Research and Development Laboratories, Inc.) with an automated filtration system (Brandel; Biomedical Research and Development Laboratories, Inc.). The glass fiber filter paper was pretreated with a 0.1% polyethylenimine solution for 4 hours or longer to minimize non-specific binding. The filter collecting the membrane components was transferred to a small-size plastic vial containing 3 mL of Pico-Fluor, and the radioactivity was measured with a liquid scintillation counter (Tri-Carb 2900TR or 2300TR; Perkin Elmer).
The effect of binding to the NK2 receptor was calculated as the affinity (Ki) of the test substance for the NK2 receptor from a 50% binding dose (IC50) and the affinity (Kd) of [^3H]SR 48968 for the NK2 receptor.

[1] = CHO cells expressing human M3 receptor, [N-methyl-3H]-(-)-Scopolamine methyl chloride 0.5 nM, Ki from IC50 and Kd, read-out: Ki
[2] = COS cells expressing human NK2 receptor, [3H]SR 48968 1 nM, Ki from IC50 and Kd, read-out: Ki

T1 sequence (P30547 whole entry): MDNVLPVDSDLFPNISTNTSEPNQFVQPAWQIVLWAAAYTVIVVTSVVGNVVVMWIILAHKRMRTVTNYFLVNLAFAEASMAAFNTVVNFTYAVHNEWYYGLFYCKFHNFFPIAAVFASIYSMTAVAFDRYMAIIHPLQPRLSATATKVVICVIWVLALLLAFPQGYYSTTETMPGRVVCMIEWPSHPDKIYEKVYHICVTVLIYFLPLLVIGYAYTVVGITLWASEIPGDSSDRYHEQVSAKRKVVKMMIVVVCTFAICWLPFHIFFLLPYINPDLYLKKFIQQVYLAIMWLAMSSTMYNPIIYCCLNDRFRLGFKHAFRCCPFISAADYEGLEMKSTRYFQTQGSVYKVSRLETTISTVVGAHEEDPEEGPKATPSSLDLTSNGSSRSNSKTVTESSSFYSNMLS
T2 sequence (P20309 whole entry): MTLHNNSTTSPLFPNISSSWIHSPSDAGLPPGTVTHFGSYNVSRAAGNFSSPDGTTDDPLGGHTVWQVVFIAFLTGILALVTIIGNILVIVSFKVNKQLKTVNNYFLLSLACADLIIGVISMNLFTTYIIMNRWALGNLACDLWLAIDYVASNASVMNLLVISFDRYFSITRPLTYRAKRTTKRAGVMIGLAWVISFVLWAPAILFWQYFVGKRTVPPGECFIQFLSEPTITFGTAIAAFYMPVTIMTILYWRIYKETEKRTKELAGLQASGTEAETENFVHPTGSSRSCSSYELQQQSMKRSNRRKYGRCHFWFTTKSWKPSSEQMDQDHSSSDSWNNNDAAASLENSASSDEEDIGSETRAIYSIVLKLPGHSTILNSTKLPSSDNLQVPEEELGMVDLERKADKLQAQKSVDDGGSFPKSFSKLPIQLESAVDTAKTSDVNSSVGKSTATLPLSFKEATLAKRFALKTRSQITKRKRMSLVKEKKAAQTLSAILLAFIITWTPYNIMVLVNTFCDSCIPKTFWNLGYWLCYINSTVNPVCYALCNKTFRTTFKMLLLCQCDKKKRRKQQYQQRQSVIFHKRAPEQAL

CN(CCCCCC(=O)N(C)CCN1CCC(OC(=O)Nc2ccccc2-c2ccccc2)CC1)Cc1ccc(C(=O)N(C)CCCN(C)C(=O)CO[C@H]2Cc3ccccc3C23CCN(CC[C@@]2(c4ccc(F)cc4)CN(C(=O)c4cc(C(F)(F)F)cc(C(F)(F)F)c4)CO2)CC3)nc1 [Example 5, 1-{2-[{6-[({6-[{3-[({[(2S)-1′-{2-[(5R)-3-[3,5-Bis(trifluoromethyl)benzoyl]-5-(4-fluorophenyl)-1,3-oxazolidin-5-yl]ethyl}-2,3-dihydrospiro[indene-1,4′-piperidin]-2-yl]oxy}acetyl)(methyl)amino]propyl}(methyl)carbamoyl]pyridin-3-yl}methyl)(methyl)amino]hexanoyl}(methyl)amino]ethyl}piperidin-4-yl biphenyl-2-ylcarbamate]
Ki (substance P receptor): 1.5 nM
Ki (human M3 receptor; [1]): 0.69 nM
Ki (human NK2 receptor; [2]): 0.48 nM

CN(CCN1CCC(OC(=O)Nc2ccccc2-c2ccccc2)CC1)C(=O)CCCCCNCc1ccc(C(=O)N(C)CCCN(C)C(=O)CO[C@H]2Cc3ccccc3C23CCN(CC[C@@]2(c4ccc(F)cc4)CN(C(=O)c4cc(C(F)(F)F)cc(C(F)(F)F)c4)CO2)CC3)nc1 [Example 7, 1-{2-[{6-[({6-[{3-[({[(2S)-1′-{2-[(5R)-3-[3,5-Bis(trifluoromethyl)benzoyl]-5-(4-fluorophenyl)-1,3-oxazolidin-5-yl]ethyl}-2,3-dihydrospiro[indene-1,4′-piperidin]-2-yl]oxy}acetyl)(methy)amino]propyl}(methyl)carbamoyl]pyridin-3-yl}methyl)amino]hexanoyl}(methyl)amino]ethyl}piperidin-4-yl biphenyl-2-ylcarbamate]
Ki (substance P receptor): 0.57 nM
Ki (human M3 receptor; [1]): 0.9 nM
Ki (human NK2 receptor; [2]): 0.17 nM

CN(CCN1CCC(OC(=O)Nc2ccccc2-c2ccccc2)CC1)C(=O)CCCCCN(C)c1ccc(C(=O)N(C)CCCN(C)C(=O)CO[C@H]2Cc3ccccc3C23CCN(CC[C@@]2(c4ccc(F)cc4)CN(C(=O)c4cc(C(F)(F)F)cc(C(F)(F)F)c4)CO2)CC3)s1 [Example 8, 1-{2-[{6-[{5-[{3-[({[(2S)-1′-{2-[(5R)-3-[3,5-Bis(trifluoromethyl)benzoyl]-5-(4-fluorophenyl)-1,3-oxazolidin-5-yl]ethyl}-2,3-dihydrospiro[indene-1,4′-piperidin]-2-yl]oxy}acetyl)(methyl)amino]propyl}(methyl)carbamoyl]-2-thienyl}(methyl)amino]hexanoyl}(methyl)amino]ethyl}piperidin-4-yl biphenyl-2-ylcarbamate]
Ki (substance P receptor): 2.6 nM
Ki (human M3 receptor; [1]): 1.9 nM
Ki (human NK2 receptor; [2]): 0.38 nM

CN(CCN1CCC(OC(=O)Nc2ccccc2-c2ccccc2)CC1)C(=O)CCCCCNc1ccc(C(=O)N(C)CCCN(C)C(=O)CO[C@H]2Cc3ccccc3C23CCN(CC[C@@]2(c4ccc(F)cc4)CN(C(=O)c4cc(C(F)(F)F)cc(C(F)(F)F)c4)CO2)CC3)cc1F [Example 13, 1-(2-{[6-({4-[{3-[({[(2S)-1′-{2-[(5R)-3-[3,5-Bis(trifluoromethyl)benzoyl]-5-(4-fluorophenyl)-1,3-oxazolidin-5-yl]ethyl}-2,3-dihydrospiro[indene-1,4′-piperidin]-2-yl]oxy}acetyl)(methyl)amino]propyl}(methyl)carbamoyl]-2-fluorophenyl}amino)hexanoyl](methyl)amino}ethyl)piperidin-4-yl biphenyl-2-ylcarbamate trihydrochloride]
Ki (substance P receptor): 2.6 nM
Ki (human M3 receptor): 1.2 nM
Ki (human NK2 receptor): 0.65 nM

CN(CCN1CCC(OC(=O)Nc2ccccc2-c2ccccc2)CC1)C(=O)CCCCCCNc1ccc(C(=O)N(C)CCCN(C)C(=O)CO[C@H]2Cc3ccccc3C23CCN(CC[C@@]2(c4ccc(F)cc4)CN(C(=O)c4cc(C(F)(F)F)cc(C(F)(F)F)c4)CO2)CC3)cc1.Cl.Cl.Cl [Example 39, 1-(2-{[7-({4-[{3-[({[(2S)-1′-{2-[(5R)-3-[3,5-Bis(trifluoromethyl)benzoyl]-5-(4-fluorophenyl)-1,3-oxazolidin-5-yl]ethyl}-2,3-dihydrospiro[indene-1,4′-piperidin]-2-yl]oxy}acetyl)(methyl)amino]propyl}methyl)carbamoyl]phenyl}amino)heptanoyl](methyl)amino}ethyl)piperidin-4-yl biphenyl-2-ylcarbamate trihydrochloride]
Ki (substance P receptor): 1.2 nM
Ki (human M3 receptor; [1]): 1.4 nM
Ki (human NK2 receptor; [2]): 0.82 nM

CN(CCCCCC(=O)N(C)CCN1CCC(OC(=O)Nc2ccccc2-c2ccccc2)CC1)Cc1cccc(C(=O)N(C)CCCN(C)C(=O)CO[C@H]2Cc3ccccc3C23CCN(CC[C@@]2(c4ccc(F)cc4)CN(C(=O)c4cc(C(F)(F)F)cc(C(F)(F)F)c4)CO2)CC3)c1 [Example 41, 1-{2-[{6-[{3-[{3-[({[(2S)-1′-{2-[(5R)-3-[3,5-Bis(trifluoromethyl)benzoyl]-5-(4-fluorophenyl)-1,3-oxazolidin-5-yl]ethyl}-2,3-dihydrospiro[indene-1,4′-piperidin]-2-yl]oxy}acetyl)(methyl)amino]propyl}(methyl)carbamoyl]benzyl}(methyl)amino]hexanoyl}(methyl)amino]ethyl}piperidin-4-yl biphenyl-2-ylcarbamate trihydrochloride]
Ki (substance P receptor): 0.96 nM
Ki (human M3 receptor): 1.4 nM
Ki (human NK2 receptor): 0.26 nM

CN(CCN1CCC(OC(=O)Nc2ccccc2-c2ccccc2)CC1)C(=O)CCCC1CCN(c2ccc(C(=O)N(C)CCCN(C)C(=O)CO[C@H]3Cc4ccccc4C34CCN(CC[C@@]3(c5ccc(F)cc5)CN(C(=O)c5cc(C(F)(F)F)cc(C(F)(F)F)c5)CO3)CC4)cc2)CC1 [Example 66, 1-(2-{[4-(1-{4-[{3-[({[(2S)-1′-{2-[(5R)-3-[3,5-Bis(trifluoromethyl)benzoyl]-5-(4-fluorophenyl)-1,3-oxazolidin-5-yl]ethyl}-2,3-dihydrospiro[indene-1,4′-piperidin]-2-yl]oxy}acetyl)(methyl)amino]propyl}methyl)carbamoyl]phenyl}piperidin-4-yl)butanoyl](methyl)amino}ethyl)piperidin-4-yl biphenyl-2-ylcarbamate trihydrochloride]
Ki (substance P receptor): 2.1 nM
Ki (human M3 receptor; [1]): 1.5 nM
Ki (human NK2 receptor; [2]): 0.86 nM

CN(CCN1CCC(OC(=O)Nc2ccccc2-c2ccccc2)CC1)C(=O)CCCCCNCc1ccc(C(=O)N(C)CCCN(C)C(=O)CO[C@H]2Cc3ccccc3C23CCN(CC[C@@]2(c4ccc(F)cc4)CN(C(=O)c4cc(C(F)(F)F)cc(C(F)(F)F)c4)CO2)CC3)cc1 [Example 75, 1-(2-{[6-({4-[{3-[({[(2S)-1-{2-[(5R)-3-[3,5-Bis(trifluoromethyl)benzoyl]-5-(4-fluorophenyl)-1,3-oxazolidin-5-yl]ethyl}-2,3-dihydrospiro[indene-1,4′-piperidin]-2-yl]oxy}acetyl)(methyl)amino]propyl}(methyl)carbamoyl]benzyl}amino)hexanoyl](methyl)amino}ethyl)piperidin-4-yl biphenyl-2-ylcarbamate]
Ki (substance P receptor): 1 nM
Ki (human M3 receptor; [1]): 0.52 nM
Ki (human NK2 receptor; [2]): 0.25 nM
